From ChEMBL document CHEMBL1149947, “Identification and chemical synthesis of MDL 105,212, a non-peptide tachykinin antagonist with high affinity for NK1 and NK2 receptors” (Bioorg Med Chem Lett, 1996)
pIC50: −log10 of the molar value. Values belong to the molecule of their own block, whether it stands above or below them.

Key:
[1] = biological target: T1, Substance-K receptor (Homo sapiens, UniProt P21452); test: Binding affinity against human NK2 receptors from HSKR-1 cells using [125I]-Iodohistidyl NKA; type: cell-based
T1 sequence (P21452 whole entry): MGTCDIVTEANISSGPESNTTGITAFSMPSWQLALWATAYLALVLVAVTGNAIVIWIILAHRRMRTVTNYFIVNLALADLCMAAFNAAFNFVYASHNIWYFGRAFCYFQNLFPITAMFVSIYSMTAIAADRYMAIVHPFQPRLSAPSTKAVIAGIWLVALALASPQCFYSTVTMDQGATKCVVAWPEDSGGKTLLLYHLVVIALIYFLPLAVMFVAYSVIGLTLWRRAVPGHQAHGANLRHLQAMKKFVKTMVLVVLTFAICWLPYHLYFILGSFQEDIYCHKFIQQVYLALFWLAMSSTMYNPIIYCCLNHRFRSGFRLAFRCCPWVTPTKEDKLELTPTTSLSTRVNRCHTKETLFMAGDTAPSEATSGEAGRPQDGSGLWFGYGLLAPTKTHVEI

[2] = biological target: Substance-P receptor (Homo sapiens, UniProt P25103); test: Binding affinity against Neurokinin 1(NK1) receptor from human IM-9 cells using [I]-Bolton Hunter labeled SP; type: cell-based
[3] = biological target: T2, Neuromedin-K receptor (Cavia porcellus, UniProt P30098); test: NK3 IC50 determined using [125I]bolton Hunter labeled eledoisin at NK3 receptors from guinea pig cerebral cortex; type: tissue-based
T2 sequence (P30098 whole entry): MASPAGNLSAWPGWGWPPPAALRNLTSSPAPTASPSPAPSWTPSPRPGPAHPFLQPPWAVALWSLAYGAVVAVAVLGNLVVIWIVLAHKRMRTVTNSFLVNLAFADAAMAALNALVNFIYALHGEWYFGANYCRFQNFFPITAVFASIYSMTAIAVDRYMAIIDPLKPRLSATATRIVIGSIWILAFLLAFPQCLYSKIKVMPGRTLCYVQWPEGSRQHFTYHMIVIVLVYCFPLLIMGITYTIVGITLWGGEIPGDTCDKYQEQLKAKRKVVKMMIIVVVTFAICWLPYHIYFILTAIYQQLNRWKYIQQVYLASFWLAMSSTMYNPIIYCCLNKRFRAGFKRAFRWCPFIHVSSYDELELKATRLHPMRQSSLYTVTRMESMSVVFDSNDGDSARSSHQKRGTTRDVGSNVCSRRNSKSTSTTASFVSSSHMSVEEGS

Sequence of Substance-P receptor (P25103 whole entry): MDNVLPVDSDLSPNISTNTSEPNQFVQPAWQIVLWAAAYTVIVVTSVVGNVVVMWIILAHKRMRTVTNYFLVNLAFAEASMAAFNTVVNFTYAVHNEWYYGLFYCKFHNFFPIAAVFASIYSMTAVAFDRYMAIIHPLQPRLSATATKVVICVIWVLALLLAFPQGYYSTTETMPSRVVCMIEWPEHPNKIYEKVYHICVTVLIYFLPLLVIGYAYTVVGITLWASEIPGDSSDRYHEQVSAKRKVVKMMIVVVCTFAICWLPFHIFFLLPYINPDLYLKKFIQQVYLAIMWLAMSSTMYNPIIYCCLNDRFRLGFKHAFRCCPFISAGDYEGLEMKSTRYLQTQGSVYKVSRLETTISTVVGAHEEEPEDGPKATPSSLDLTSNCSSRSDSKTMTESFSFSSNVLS

Structure (SMILES): COc1cc(CC(=O)N2CCC(CCN3CCC(C(N)=O)(c4ccccc4)CC3)(c3ccc(Cl)c(Cl)c3)C2)cc(OC)c1OC (configuration not stated)
pIC50 [1]: 7.26 | pIC50 [2]: 7.18

Structure (SMILES): COc1ccccc1CC(=O)N1CCC(CCN2CCC(C(N)=O)(c3ccccc3)CC2)(c2ccc(Cl)c(Cl)c2)C1 (configuration not stated)
pIC50 [2]: 7.32

Structure (SMILES): COc1cccc(C(=O)N2CCC(CCN3CCC(C(N)=O)(c4ccccc4)CC3)(c3ccc(Cl)c(Cl)c3)C2)c1 (configuration not stated)
pIC50 [1]: 7.92 | pIC50 [2]: 6.97

Structure (SMILES): COc1ccc(C(=O)N2CCC(CCN3CCC(C(N)=O)(c4ccccc4)CC3)(c3ccc(Cl)c(Cl)c3)C2)c(OC)c1 (configuration not stated)
pIC50 [2]: 6.90

Structure (SMILES): COc1ccccc1C(=O)N1CCC(CCN2CCC(C(N)=O)(c3ccccc3)CC2)(c2ccc(Cl)c(Cl)c2)C1 (configuration not stated)
pIC50 [1]: 7.78 | pIC50 [2]: 7.13

Structure (SMILES): COc1cc(OC)cc(C(=O)N2CCC(CCN3CCC(C(N)=O)(c4ccccc4)CC3)(c3ccc(Cl)c(Cl)c3)C2)c1 (configuration not stated)
pIC50 [1]: 7.72 | pIC50 [2]: 7.16

Structure (SMILES): COc1c(Br)cc(C(=O)N2CCC(CCN3CCC(C(N)=O)(c4ccccc4)CC3)(c3ccc(Cl)c(Cl)c3)C2)cc1Br (configuration not stated)
pIC50 [1]: 8.39 | pIC50 [2]: 6.50

pIC50 [1]: 7.02 | pIC50 [2]: 6.60
Structure (SMILES): CCOC(=O)Oc1c(OC)cc(C(=O)N2CCC(CCN3CCC(C(N)=O)(c4ccccc4)CC3)(c3ccc(Cl)c(Cl)c3)C2)cc1OC (configuration not stated)

Structure (SMILES): COc1c(C)cc(C(=O)N2CCC(CCN3CCC(C(N)=O)(c4ccccc4)CC3)(c3ccc(Cl)c(Cl)c3)C2)cc1C (configuration not stated)
pIC50 [1]: 8.16 | pIC50 [2]: 6.77

Structure (SMILES): COc1cc(C(=O)N2CC[C@](CCN3CCC(C(N)=O)(c4ccccc4)CC3)(c3ccc(Cl)c(Cl)c3)C2)cc(OC)c1OC
pIC50 [1]: 8.08 | pIC50 [2]: 8.51 | pIC50 [3]: 7.68

Structure (SMILES): NC(=O)C1(c2ccccc2)CCN(CCC2(c3ccc(Cl)c(Cl)c3)CCN(C(=O)c3ccccc3)C2)CC1 (configuration not stated)
pIC50 [2]: 6.57

Structure (SMILES): COc1cc(C(=O)N2CCC(CCN3CCC(C(N)=O)(c4ccccc4)CC3)(c3ccc(Cl)c(Cl)c3)C2)cc(OC)c1C (configuration not stated)
pIC50 [1]: 7.87 | pIC50 [2]: 7.19

Structure (SMILES): COc1cccc(OC)c1C(=O)N1CCC(CCN2CCC(C(N)=O)(c3ccccc3)CC2)(c2ccc(Cl)c(Cl)c2)C1 (configuration not stated)
pIC50 [1]: 7.27 | pIC50 [2]: 7.64

pIC50 [1]: 7.37 | pIC50 [2]: 7.18
Structure (SMILES): COc1cc(C(=O)N2CCC(CCN3CCC(C(N)=O)(c4ccccc4)CC3)(c3ccc(Cl)c(Cl)c3)C2)cc(OC)c1OC(C)C (configuration not stated)

Structure (SMILES): CC(C)Oc1cccc(CC(=O)N2CCC(CCN3CCC(C(N)=O)(c4ccccc4)CC3)(c3ccc(Cl)c(Cl)c3)C2)c1 (configuration not stated)
pIC50 [1]: 6.26 | pIC50 [2]: 6.86

Structure (SMILES): COc1ccc(C(=O)N2CCC(CCN3CCC(C(N)=O)(c4ccccc4)CC3)(c3ccc(Cl)c(Cl)c3)C2)cc1 (configuration not stated)
pIC50 [1]: 7.93 | pIC50 [2]: 6.20

Structure (SMILES): COc1cc(C(=O)N2CCC(CCN3CCC(C(N)=O)(c4ccccc4)CC3)(c3ccc(Cl)c(Cl)c3)C2)cc(OC)c1OC (configuration not stated)
pIC50 [1]: 7.73 | pIC50 [2]: 8.21

Structure (SMILES): COc1ccccc1CN[C@H]1C2CCN(CC2)[C@H]1C(c1ccccc1)c1ccccc1 [CP-96345]
pIC50 [1]: < 5.00 | pIC50 [3]: < 5.00

pIC50 [1]: 9.36 | pIC50 [2]: 6.23 | pIC50 [3]: 6.68
Structure (SMILES): CC(=O)NC1(c2ccccc2)CCN(CC[C@H](CN(C)C(=O)c2ccccc2)c2ccc(Cl)c(Cl)c2)CC1 [SAREDUTANT]
